“And” between values parts separate entries of the source, which are not always exact repeats. Equal entries are not always repeated.
Target: T1, Human K2P13.1 THIK-1 (WT) (Homo sapiens, UniProt Q9HB14)
T1 construct: expressed in transfected cells; host or cells: Xenopus oocytes (mRNA injection)
T1 sequence (Q9HB14 1-408): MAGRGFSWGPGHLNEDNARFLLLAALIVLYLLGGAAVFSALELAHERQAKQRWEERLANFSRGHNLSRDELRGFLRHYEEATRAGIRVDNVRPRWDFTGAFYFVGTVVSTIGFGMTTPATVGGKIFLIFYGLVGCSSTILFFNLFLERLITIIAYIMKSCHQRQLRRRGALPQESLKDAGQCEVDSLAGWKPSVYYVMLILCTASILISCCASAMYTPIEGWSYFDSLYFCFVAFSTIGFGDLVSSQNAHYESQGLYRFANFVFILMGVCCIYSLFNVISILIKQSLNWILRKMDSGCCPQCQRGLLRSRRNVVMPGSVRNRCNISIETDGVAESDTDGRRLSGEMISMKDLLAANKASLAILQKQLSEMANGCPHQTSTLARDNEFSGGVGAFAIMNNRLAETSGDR
Experiment: Macroscopic inside-out excised patch recordings from Xenopus oocytes expressing WT THIK-1; compounds applied to the intracellular side
Format: cell-based
Settings: for Inhibition (%): individual recordings
Text: Human K2P13.1 THIK-1 (GenBank accession number: NM_022054) and human K2P12.1 THIK-2 (NM_022055.1) were used in this study. For functional expression studies, the respective K^+ channel subtype coding sequences were subcloned into the oocyte expression vector pSGEM or the dual-purpose expression vector pFAW[41] and verified by sequencing. All mutant channels were obtained by site-directed mutagenesis and verified by sequencing. To increase surface expression and macroscopic currents, measurements of THIK-2 channels used a mutated ER retention motif, (R11A R12A R14A R15A R16A; THIK-2*)[20]. Vector DNA was linearized with NheI or MluI, and mRNA was synthesized in vitro using the SP6 or T7 AmpliCap Max High Yield Message Maker Kit (Cellscript, USA) or HiScribe T7 ARCA mRNA Kit (New England Biolabs).
Two-electrode voltage–clamp (TEVC) studies were performed in Xenopus oocytes. All animal use conformed to the Guide for the Care and Use of Laboratory Animals (NIH Publication 85–23), and all experiments using Xenopus toads were approved by the local ethics panels. Oocytes were stored at 17 °C in ND96 recording solution composed of (in mM): 96 NaCl, 2 KCl, 1.8 CaCl2, 1 MgCl2, 5 HEPES (pH 7.5 adjusted with NaOH and HCl), supplemented with Na-pyruvate (275 mg L^–1), theophylline (90 mg L^–1) and gentamicin (50 mg L^–1). Oocytes were injected with 1 ng mRNA for WT or mutant channels, and were incubated for 24–48 h at 17 °C. Two-electrode voltage clamp recordings were then performed as previously described[42],[43]. For macroscopic patch–clamp measurements, oocytes were obtained as described above incubated at 17 °C in a solution containing (mM): 54 NaCl, 30 KCl, 2.4 NaHCO3, 0.82 MgSO4 ×7 H2O, 0.41 CaCl2, 0.33 Ca(NO3)2 ×4 H2O and 7.5 TRIS (pH 7.4 adjusted with NaOH and HCl) for 1–4 days before use. Excised patch recordings in inside-out configuration conditions were performed at room temperature. Patch pipettes were made from thick-walled borosilicate glass GB 200TF-8P (Science Products), had resistances of 0.2–0.5 MΩ (tip diameter, 10–25 µm) and filled with a pipette solution (in mM): 120 KCl, 10 HEPES and 3.6 CaCl2 (pH 7.4 adjusted with KOH and HCl). Intracellular bath solutions and compounds were applied to the cytoplasmic side of excised patches for the various K^+ channels through a gravity flow multi-barrel pipette system. The intracellular solution had the following composition (in mM): 120 KCl, 10 HEPES, 2 EGTA and 1 pyrophosphate (pH adjusted with KOH and HCl). Currents were recorded with an EPC10 amplifier (HEKA Electronics) and sampled at 10 kHz or higher, with filtering set to 3 kHz (–3 dB) or higher, as appropriate for sampling rate. For measurements of GPCR activation, whole-cell currents were recorded for THIK-1 in transiently transfected HEK-293 cells. Cells were stimulated by a ramp protocol between −100 and +60 mV (holding potential, −80 mV). The pipette solution was composed of (in mM): 140 KCl, 2 MgCl2, 1 CaCl2, 2.5 EGTA and 10 HEPES (pH 7.3 adjusted with KOH and HCl). The extracellular bath solution had the following composition (in mM): 135 NaCl, 5 KCl, 2 MgCl2, 2 CaCl2, 10 glucose and 10 HEPES pH (pH 7.3 adjusted with NaOH and HCl). Oxotremorine M (Oxo-M) was added to extracellular bath solution to obtain the final concentration. Single-channel currents were recorded with an Axopatch 200B amplifier through a Digidata 1440A digitizer (Molecular Devices). Data were filtered at 2 kHz and recorded at a 200-kHz sampling rate with the program Clampex (Molecular Devices). Pipette solution and bath solution for cell-attached recordings contained (in mM): 140 KCl, 2 MgCl2, 1 CaCl2 and 10 HEPES (pH 7.4 adjusted with KOH and HCl). For inside-out recordings, the bath solution contained (in mM): 140 KCl, 2 MgCl2, 1 CaCl2 and 10 HEPES (pH 7.2 adjusted with KOH and HCl). All experiments were conducted at room temperature. […]

inhibition at 242 µM (THIK-1 WT (oleoyl-CoA), 0.242 mM isoflurane)	inhibition at 485 µM (THIK-1 WT (oleoyl-CoA), 0.485 mM isoflurane)	inhibition at 2420 µM (THIK-1 WT (oleoyl-CoA), 2.42 mM isoflurane)	inhibition at 4850 µM (THIK-1 WT (oleoyl-CoA), 4.85 mM isoflurane)	inhibition at 24200 µM (THIK-1 WT (oleoyl-CoA), 24.2 mM isoflurane)	Inhibition (THIK-1 WT (oleoyl-CoA), isoflurane concentration printed as "v" (mM))	inhibition at 48 µM (isoflurane 0.048 mM, THIK-1 WT)	inhibition at 242 µM (isoflurane 0.242 mM, THIK-1 WT)	inhibition at 485 µM (isoflurane 0.485 mM, THIK-1 WT)	inhibition at 2420 µM (isoflurane 2.42 mM, THIK-1 WT)	inhibition at 4850 µM (isoflurane 4.85 mM, THIK-1 WT)	inhibition at 24200 µM (isoflurane 24.2 mM, THIK-1 WT)	inhibition at 240 µM (0.24 mM Sevoflurane, WT, mean)	inhibition at 23 µM (THIK-1 WT, 0.023 mM sevoflurane)	inhibition at 47 µM (THIK-1 WT, 0.047 mM sevoflurane)	inhibition at 468 µM (THIK-1 WT, 0.468 mM sevoflurane)	inhibition at 2340 µM (THIK-1 WT, 2.34 mM sevoflurane)	SMILES	Inhibition (%) (4.9 mM Isoflurane, WT)	Inhibition (%) (0.24 mM Sevoflurane, WT)
10.6%	21%	33.6%	60.9%	79.7%	4.36%	20.4%	33.6%	50.2%	65.3%	81.1%	89.5%	–	–	–	–	–	FC(F)OC(Cl)C(F)(F)F (stereo not shown) [Isoflurane, isoflurane]	88.353% and 81.703% and 79.557% and 81.992% and 78.205% and 79.070% and 68.116% and 80.054% and 86.809% and 87.556%	–
–	–	–	–	–	–	–	–	–	–	–	–	48.5%	14.1%	21.7%	57.5%	79.5%	FCOC(C(F)(F)F)C(F)(F)F [Sevoflurane, sevoflurane]	–	52.54% and 40.05% and 49.45% and 28.56% and 58.12% and 60.68% and 50.30%

Source: article PMC12263422, “Cryo-EM structure of the human THIK-1 K2P K^+ channel reveals a lower Y gate regulated by lipids and anesthetics” (Nature Structural & Molecular Biology, 2025)
